In publication PMC6964667 (2020) one finds binding, KD and ΔTm data, which are given here for six compounds.

The structures appear in SMILES notation.

In test [1] the test system is D2 (DNA, hairpin) CATTGTTAGACTTTTTGTCTAACAATG
Kind of test: CD titration (ICD). The settings on record: 10 mM KCl, 10 mM MgCl2, 5 mM CaCl2, 10 μM DNA.

Test [2] relates to D2' (DNA, hairpin) CATTGTCAGACTTTTTGTCTGACAATG
Kind of test: CD titration (ICD). Conditions: 10 mM KCl, 10 mM MgCl2, 5 mM CaCl2, 10 μM DNA.

Test [3] deals with D2 (DNA, hairpin) CATTGTTAGACTTTTTGTCTAACAATG
Description: CD/UV melting at 260 nm. The settings on record: 10 mM KCl, 10 mM MgCl2, 5 mM CaCl2; sodium dimethyl arsinate pH 6.9, 6% DMSO; 3.9 equiv compound, 8.87 μM DNA.

For test [4], the system named is D2' (DNA, hairpin) CATTGTCAGACTTTTTGTCTGACAATG
Kind of test: CD/UV melting at 260 nm. The settings on record: 10 mM KCl, 10 mM MgCl2, 5 mM CaCl2; sodium dimethyl arsinate pH 6.9, 6% DMSO; 3.6 equiv compound, 8.87 μM DNA.

Test [5] relates to D1 (DNA, hairpin) CATTGTCAGCCTTTTTGGCTGACAATG
Kind of test: CD titration (ICD). Conditions: 10 mM KCl, 10 mM MgCl2, 5 mM CaCl2, 10 μM DNA.

For test [6], the system named is D1' (DNA, hairpin) CATTGTTAGCCTTTTTGGCTAACAATG
Description: CD titration (ICD). Conditions: 10 mM KCl, 10 mM MgCl2, 5 mM CaCl2, 10 μM DNA.

In test [7] the test system is D1 (DNA, hairpin) CATTGTCAGCCTTTTTGGCTGACAATG
Description: CD/UV melting at 260 nm. The settings on record: 10 mM KCl, 10 mM MgCl2, 5 mM CaCl2; sodium dimethyl arsinate pH 6.9, 6% DMSO; 3.3 equiv compound, 8.87 μM DNA.

Test [8] has as its system D1' (DNA, hairpin) CATTGTTAGCCTTTTTGGCTAACAATG
Kind of test: CD/UV melting at 260 nm. Conditions: 10 mM KCl, 10 mM MgCl2, 5 mM CaCl2; sodium dimethyl arsinate pH 6.9, 6% DMSO; 3.3 equiv compound, 8.87 μM DNA.

Test [9] relates to D3' (DNA, hairpin) CATTGTTATGCCTTTTTGGCATAACAATG
Description: CD titration (ICD). The settings on record: 10 mM KCl, 10 mM MgCl2, 5 mM CaCl2, 10 μM DNA.

Test [10] relates to D3 (DNA, hairpin) CATTGTCATGCCTTTTTGGCATGACAATG
Description: CD titration (ICD). The settings on record: 10 mM KCl, 10 mM MgCl2, 5 mM CaCl2, 10 μM DNA.

For test [11] the test system is unchanged. Description: CD/UV melting at 260 nm. The settings on record: 10 mM KCl, 10 mM MgCl2, 5 mM CaCl2; sodium dimethyl arsinate pH 6.9, 6% DMSO; 3.3 equiv compound, 8.87 μM DNA.
Test [12] deals with D3' (DNA, hairpin) CATTGTTATGCCTTTTTGGCATAACAATG
Kind of test: CD/UV melting at 260 nm. Conditions: 10 mM KCl, 10 mM MgCl2, 5 mM CaCl2; sodium dimethyl arsinate pH 6.9, 6% DMSO; 3.7 equiv compound, 8.87 μM DNA.

Where [13] appears, read: 10 mM sodium dimethyl arsinate pH 6.9, 20 °C, up to 4.8 equiv, no ICD.
The mark [14] stands for this setting: 10 mM sodium dimethyl arsinate pH 6.9, up to 6% DMSO, 20 °C, saturation not reached.
Where [15] appears, read: 10 mM sodium dimethyl arsinate pH 6.9, up to 6% DMSO, 20 °C.

As to `CN(C)CCCNC(=O)CCNC(=O)c1cc(NC(=O)c2cc(NC(=O)c3cc(NC(=O)Cc4cccc(/N=N/c5cccc(CNC(=O)c6cc(NC(=O)c7cc(NC(=O)c8nccn8C)cn7C)cn6C)c5)c4)cn3C)cn2C)cn1C`, the binding entry in [1] (setting [13]) and in test [2] (setting [13]) was “no” each time.
On to `CN(C)CCCNC(=O)CCNC(=O)c1cc(NC(=O)c2cc(NC(=O)c3cc(NC(=O)Cc4cccc(/N=N\c5cccc(CNC(=O)c6cc(NC(=O)c7cc(NC(=O)c8nccn8C)cn7C)cn6C)c5)c4)cn3C)cn2C)cn1C`, for which the KD in test [1] (setting [14]) was 52.3 ± 21.0 µM; in test [2] (setting [15]), 42.2 ± 6.3 µM. The ΔTm in test [3] stood at 2.0 K; in test [4], 1.4 K.
As for `CN(C)CCCNC(=O)CCNC(=O)c1cc(NC(=O)c2cc(NC(=O)c3nc(NC(=O)Cc4cccc(/N=N/c5cccc(CNC(=O)c6cc(NC(=O)c7cc(NC(=O)c8nccn8C)cn7C)cn6C)c5)c4)cn3C)cn2C)cn1C`, the binding result in [5] (setting [13]) and in test [6] (setting [13]) was “no” each time.
As to `CN(C)CCCNC(=O)CCNC(=O)c1cc(NC(=O)c2cc(NC(=O)c3nc(NC(=O)Cc4cccc(/N=N\c5cccc(CNC(=O)c6cc(NC(=O)c7cc(NC(=O)c8nccn8C)cn7C)cn6C)c5)c4)cn3C)cn2C)cn1C`, the KD in test [5] (setting [15]) was found to be 11.8 ± 6.0 µM; in [6] (setting [15]), 13.2 ± 7.8 µM. In addition, the ΔTm in test [7] is recorded as 3.5 K; in [8], 2.1 K.
For `CN(C)CCCNC(=O)CCNC(=O)c1cc(NC(=O)c2cc(NC(=O)c3nc(NC(=O)c4cc(NC(=O)Cc5cccc(/N=N/c6cccc(CNC(=O)c7cc(NC(=O)c8cc(NC(=O)c9cc(NC(=O)c%10nccn%10C)cn9C)cn8C)cn7C)c6)c5)cn4C)cn3C)cn2C)cn1C`, the binding result in test [9] (setting [13]) and in test [10] (setting [13]) was “no” in each case.
In the case of `CN(C)CCCNC(=O)CCNC(=O)c1cc(NC(=O)c2cc(NC(=O)c3nc(NC(=O)c4cc(NC(=O)Cc5cccc(/N=N\c6cccc(CNC(=O)c7cc(NC(=O)c8cc(NC(=O)c9cc(NC(=O)c%10nccn%10C)cn9C)cn8C)cn7C)c6)c5)cn4C)cn3C)cn2C)cn1C`, the KD in test [9] (setting [14]) was determined as 52.9 ± 29.6 µM; in test [10] (setting [15]) it was 21.3 ± 11.2 µM. The ΔTm is listed as 3.5 K in [11] and 0.4 K in test [12].

As usually defined, the KD is the equilibrium constant for the complex coming apart. A low value points to a tighter complex.
